Consider 15 molecules from article PMC7435646, “Design, Synthesis and Bioactive Evaluation of Oxime Derivatives of Dehydrocholic Acid as Anti-Hepatitis B Virus Agents” (Molecules, 2020).

One data set relates to HBeAg. Kind of data set: Inhibition of HBeAg secretion (ELISA) in HepG2.2.15 cells. In kind it is cell-based, hepatitis B virus (HBV). The following applies: for inhibition of HBV in vitro assay: in vitro assay (Table S1); for HBeAg IC50: ELISA, nine day treatment, mean ± S.D. (n = 3), '-' = inhibition ratio less than 50% in the test concentration range; for IC50: Hepatitis B virus, HepG2.2.15, 216 h, read-out: HBeAg IC50; for HBeAg SI: SI (selectivity index) = CC50/IC50. As to the method:
HepG2.2.15 cells were kindly provided by the Chinese Academy of Medical Sciences (Beijing, China), derived from human hepatoma cell line G2. […] The compounds were diluted to the desired concentrations in culture medium. […] Every three days in a nine day period, supernatant of each well was replaced with compound-containing fresh medium.
The levels of HBeAg and HBsAg in the supernatant of the cells were measured using ELISA assay following the manufacturer’s protocol (Shanghai Kehua Bio-engineering Co., Ltd., Shanghai, China).
In general terms: In an ELISA, binding on a coated surface is turned into a signal by an enzyme label.

Data set [1] in a line: Cytotoxicity by MTT assay in HepG2.2.15 cells. In kind it is cell-based. The following applies: human, 50% cytotoxicity concentration in HepG 2.2.15 cells, mean ± S.D. (n = 3). The protocol:
(§1) HepG2.2.15 cells were kindly provided by the Chinese Academy of Medical Sciences (Beijing, China), derived from human hepatoma cell line G2. These cells were cultured in Dulbecco’s Modified Eagle’s Medium (DMEM), supplemented with 10% fetal bovine serum (FBS), 1.5 g/L of sodium bicarbonate, 10 mL/L of penicillin, and streptomycin, respectively, and 200 mg/L of G418 at 37 °C under 5% carbon dioxide in a 95–98% humidity. The compounds were diluted to the desired concentrations in culture medium. Before treated with various concentrations of compounds, cells were seeded at a density of 1 × 10^5 cells/mL in 96-well plates and incubated for 24 h at 37 °C. Every three days in a nine day period, supernatant of each well was replaced with compound-containing fresh medium.
The cytotoxicity activity of the synthesized compounds was determined by MTT assay. After refreshing the supernatant, 20 μL MTT (5 mg/mL) was added to each well, which was further cultured for 4 h at 37 °C. Then the supernatant of each well was carefully removed, formazan crystals were dissolved in […] of DMSO and the absorbance at 450 nm was recorded. Cytotoxicity of these compounds was expressed as the concentration of compound required to kill 50% (CC50) of the HepG2.2.15 cells.

The test system of the next data set is HBsAg. Kind of data set: Inhibition of HBsAg secretion (ELISA) in HepG2.2.15 cells. In kind it is cell-based, hepatitis B virus (HBV). The note with it: for IC50: Hepatitis B virus, HepG2.2.15, 216 h, read-out: HBsAg IC50; for HBsAg SI: SI (selectivity index) = CC50/IC50. The protocol:
as §1
The levels of HBeAg and HBsAg in the supernatant of the cells were measured using ELISA assay following the manufacturer’s protocol (Shanghai Kehua Bio-engineering Co., Ltd., Shanghai, China). The synthesized compounds were expressed as the concentration that achieved 50% inhibition (IC50) to the secretion of HBeAg and HBsAg.

The mark [2] stands for this setting: HepG2.2.15 cells, result in words.

For `C[C@H](CCC(=O)O)[C@H]1CC[C@H]2[C@@H]3[C@H](O)C[C@@H]4C[C@H](O)CC[C@]4(C)[C@H]3C[C@H](O)[C@]12C` [Cholic acid], the “inhibition of HBV in vitro assay” value in the data set with HBeAg (result in words) is “did not exhibit inhibition”.
The CC50 is the concentration that lowers cell viability or growth by half. The melting point is the temperature of the solid-liquid transition. In turn, `CC(CCC(=O)O)C1CCC2C3C(=O)CC4CC(=NO)CCC4(C)C3CC(=O)C12C` (stereo not drawn) [Compound 0-1, (E)-3-(hydroxyimino)-7,12-dioxolcholanic acid] gave a melting point of 250.4 to 252.4 °C. Besides, the cytotoxic concentration (CC50) at 9 days in data set [1] was more than 1000 µM. The “HBeAg IC50” value with HBeAg (HepG2.2.15 cells) was “- (The inhibition ratio less than 50% in the test concentration range)”.
In general, IC50 refers to the point on the concentration scale where inhibition reaches its midpoint. In turn, `CC(CCC(=O)O)C1CCC2C3C(=O)CC4CC(=NOCc5ccccc5)CCC4(C)C3CC(=O)C12C` (stereo not drawn) [Compound 0-2, (E)-3-((benzyloxy)imino)-7,12-dioxolcholanic acid] registered a melting point of 198.5 to 200.5 °C. In data set [1], this molecule came in with a cytotoxic concentration (CC50) at 9 days of 470 ± 6.35 µM. Further, in the data set with HBeAg, the half-maximal inhibitory concentration (IC50) was 119 ± 1.86 µM and the “HBeAg SI” value was 3.95.
Molecule `CON=C1CCC2(C)C(CC(=O)C3C2CC(=O)C2(C)C(C(C)CCC(=O)O)CCC32)C1` (stereo not drawn) [Compound 0-3, (E)-3-(methoxyimino)-7,12-dioxolcholanic acid] came in with a melting point of 197.2 to 199.2 °C. The CC50 at 9 days in data set [1] was more than 1000 µM. The “HBeAg IC50” value in the data set with HBeAg (HepG2.2.15 cells) was “- (The inhibition ratio less than 50% in the test concentration range)”.
As to `C[C@H](CCC(=O)OCc1ccccc1)[C@H]1CC[C@H]2[C@@H]3C(=O)CC4C/C(=N/O)CC[C@]4(C)[C@H]3CC(=O)[C@]12C` (stereo partly drawn) [Compound 2a-1, Benzyl (E)-3-(hydroxyimino)-7,12-dioxocholanoate], the melting point lay within 199.2 to 201.2 °C. Moreover, the CC50 at 9 days in data set [1] was 378 ± 25.3 µM. In addition, in the data set with HBsAg, the concentration for half-maximal inhibition (IC50) was 630 ± 35 µM and the “HBsAg SI” value is 0.60. In addition, in the data set on HBeAg, the concentration for half-maximal inhibition (IC50) was 229 ± 12.8 µM and the “HBeAg SI” value worked out at 1.65.
As for `C[C@H](CCC(=O)OCc1ccccc1)[C@H]1CC[C@H]2[C@@H]3C(=O)CC4C/C(=N/OCc5ccccc5)CC[C@]4(C)[C@H]3CC(=O)[C@]12C` (stereo partly drawn) [Compound 2a-2, Benzyl (E)-3-((benzyloxy)imino)-7,12-dioxocholanoate], the melting point fell in the range of 135.3 to 137.3 °C. Also, the 50% cytotoxic concentration (CC50) at 9 days in data set [1] was determined as 211 ± 17.1 µM. In addition, in the data set with HBeAg, the half-inhibitory concentration (IC50) came to 249 ± 47.6 µM and the “HBeAg SI” value is recorded as 0.85.
The molecule `CO/N=C1\CC[C@@]2(C)[C@H](CC(=O)[C@@H]3[C@@H]2CC(=O)[C@]2(C)[C@@H]([C@H](C)CCC(=O)OCc4ccccc4)CC[C@@H]32)C1` [Compound 2a-3, Benzyl (E)-3-(methoxyimino)-7,12-dioxolcholanoate] returned a melting point of 132.6 to 134.6 °C. The molecule further displayed a 50% cytotoxic concentration (CC50) at 9 days in data set [1] of 169 ± 5.75 µM. Besides, in the data set on HBeAg, the half-maximal inhibitory concentration (IC50) was 188 ± 9.51 µM and the “HBeAg SI” value is 0.90.
Take `C[C@H](CCC(=O)OCc1ccc2c(c1)OCO2)[C@H]1CC[C@H]2[C@@H]3C(=O)CC4C/C(=N/O)CC[C@]4(C)[C@H]3CC(=O)[C@]12C` (stereo partly drawn) [Compound 2b-1, 3,4-Methylenedioxybenzyl (E)-3-(hydroxyimino)-7,12-dioxocholanoate]: the melting point lay in the range of 182.5 to 184.5 °C. This molecule displayed a 50% cytotoxic concentration (CC50) at 9 days in data set [1] of more than 1000 µM. For the same molecule, in the data set with HBeAg, the IC50 turned out to be 96.6 ± 29 µM and the “HBeAg SI” value is 10.35.
For the molecule `C[C@H](CCC(=O)OCc1ccc2c(c1)OCO2)[C@H]1CC[C@H]2[C@@H]3C(=O)CC4C/C(=N/OCc5ccccc5)CC[C@]4(C)[C@H]3CC(=O)[C@]12C` (stereo partly drawn) [Compound 2b-2, 3,4-Methylenedioxybenzyl (E)-3-((benzyloxy)imino)-7,12-dioxocholanoate], the melting point was in the range of 124.3 to 126.3 °C. Besides, the CC50 at 9 days in data set [1] is 728 ± 45.2 µM. In addition, in the data set with HBeAg (HepG2.2.15 cells), the “HBeAg IC50” value is recorded as “- (The inhibition ratio less than 50% in the test concentration range)”.
Molecule `CO/N=C1\CC[C@@]2(C)C(CC(=O)[C@H]3[C@@H]4CC[C@H]([C@H](C)CCC(=O)OCc5ccc6c(c5)OCO6)[C@@]4(C)C(=O)C[C@@H]32)C1` (stereo partly drawn) [Compound 2b-3, 3,4-Methylenedioxybenzyl (E)-3-(methoxyimino)-7,12-dioxocholanoate] yielded a melting point of 118.7 to 120.7 °C. This molecule also displayed a cytotoxic concentration (CC50) at 9 days in data set [1] of 545 ± 28.9 µM. For the same molecule, in the data set with HBeAg, the IC50 worked out at 49.4 ± 12.8 µM and the “HBeAg SI” value is 11.03.
For the molecule `C[C@H](CCC(=O)OCc1ccco1)[C@H]1CC[C@H]2[C@@H]3C(=O)CC4C/C(=N/O)CC[C@]4(C)[C@H]3CC(=O)[C@]12C` (stereo partly drawn) [Compound 2c-1, Furan-2-ylmethyl (E)-3-(hydroxyimino)-7,12-dioxocholanoate], the melting point is 193.2 to 195.2 °C. Besides, the 50% cytotoxic concentration (CC50) at 9 days in data set [1] was determined as 155 ± 30.8 µM. For the same molecule, in the data set with HBsAg, the IC50 worked out at 300 ± 15.3 µM and the “HBsAg SI” value worked out at 0.52. In addition, in the data set with HBeAg, the concentration for half-maximal inhibition (IC50) was 111 ± 28.3 µM and the “HBeAg SI” value is recorded as 1.40.
Turning to `C[C@H](CCC(=O)OCc1ccco1)[C@H]1CC[C@H]2[C@@H]3C(=O)CC4C/C(=N/OCc5ccccc5)CC[C@]4(C)[C@H]3CC(=O)[C@]12C` (stereo partly drawn) [Compound 2c-2, Furan-2-ylmethyl (E)-3-((benzyloxy)imino)-7,12-dioxocholanoate], the melting point fell in the range of 131.5 to 133.5 °C. In addition, the midpoint of cytotoxicity in data set [1], the CC50 at 9 days, lay at 101 ± 10.7 µM. In the data set with HBsAg, the IC50 was 464 ± 20.1 µM and the “HBsAg SI” value is listed as 0.22. Further, in the data set on HBeAg, the concentration for half-maximal inhibition (IC50) came to 151 ± 32.1 µM and the “HBeAg SI” value is reported as 0.67.
`CO/N=C1\CC[C@@]2(C)C(CC(=O)[C@H]3[C@@H]4CC[C@H]([C@H](C)CCC(=O)OCc5ccco5)[C@@]4(C)C(=O)C[C@@H]32)C1` (stereo partly drawn) [Compound 2c-3, Furan-2-ylmethyl (E)-3-(methoxyimino)-7,12-dioxocholanoate] had a melting point of 122.3 to 124.3 °C. Moreover, the cytotoxic concentration (CC50) at 9 days in data set [1] is 90.9 ± 15.6 µM. Also, in the data set with HBsAg, the IC50 is 181 ± 52.8 µM and the “HBsAg SI” value was determined as 0.50. Further, in the data set on HBeAg, the half-maximal inhibitory concentration (IC50) was 105 ± 22.2 µM and the “HBeAg SI” value is on record as 0.86.
Regarding `C[C@H](CCC(=O)O)[C@H]1CC[C@H]2[C@@H]3C(=O)C[C@@H]4CC(=O)CC[C@]4(C)[C@H]3CC(=O)[C@]12C` [DHCA, Dehydrocholic acid], the CC50 at 9 days in data set [1] is more than 1000 µM. Besides, the “activity against the secretion of HBsAg” value in the data set on HBsAg (setting [2]) was “no activity”. Besides, the “HBeAg IC50” value with HBeAg (HepG2.2.15 cells) is “- (The inhibition ratio less than 50% in the test concentration range)”. Besides, the “activity against the secretion of HBeAg” value in the data set on HBeAg (setting [2]) is listed as “no activity”. In addition, the “inhibition of HBV in vitro assay” value in the data set on HBeAg (result in words) is “did not exhibit inhibition”.
For `C=C1[C@H](CO)[C@@H](O)C[C@@H]1n1cnc2c(=O)[nH]c(N)nc21` [ETV, Entecavir, reference compound], in data set [1], the 50% cytotoxic concentration (CC50) at 9 days stood at 600 ± 23.4 µM. Further, the figures for the IC50 in the data set with HBsAg and in the data set on HBeAg were 161 ± 35.9 µM and 247 ± 50 µM, respectively. In the data set on HBsAg, the “HBsAg SI” value came out at 3.72.
